Among the data in patent EP0701444B1, “METHODS AND COMPOSITIONS FOR INDUCING SLEEP” (Purdue Pharma Ltd., priority 1993, dated 1994) are IC50 values, retold here.

“And” between values parts separate entries of the source, which are not always exact repeats. Equal values may be shown once. Where a name gives a salt, the structure may show the parent alone.

The target of one test is steroid site on the GABAA receptor-chloride channel complex. As to the kind of experiment: [35S]TBPS binding assay. Set-up: species or system Male Sprague-Dawley rats. The conditions noted are these: inhibition of [35S]TBPS (2 nM) binding, rat cerebral cortex P2 membranes, 5 µM GABA, 90 minute incubation at 22°C. The procedure:
TBPS binding assays were conducted according to the following procedures, which are described in Gee, K.W.; Lawrence, L.J.; and Yamamura, H. I., "Modulation of the Chloride Ionophore by Benzodiazepine Receptor Ligands Influence of Gamma-Aminobutyric Acid and Ligand Efficacy," Molecular Pharmacology, 30:218, 1986. Male Sprague-Dawley rats (200-250g) were anesthetized with carbon dioxide and decapitated. The rats' brains were removed and the cerebral cortices were dissected and homogenized in 10 volumes of 0.32 M sucrose. Tissue was centrifuged at 1000 x g for 10 minutes and the resultant supernatant was centrifuged at 9,000 g for 20 minutes. The resultant pellet was resuspended in 10 volumes of 200 mM NaCl/50 mM Na-K phosphate pH 7.4 buffer (binding buffer) and then centrifuged at 9,000 x g for 10 minutes. This washing procedure was repeated twice and the final P2 pellet was resuspended in the binding buffer. For the binding assay, [^35S] TBPS (2 nM) was co-incubated in binding buffer with P2 membranes and 5 µM GABA and either 1) no additions to measure total binding; 2) 2 µM unlabeled TPBS to measure nonspecific binding; 3) the neurosteroid ranging in concentration from 1 Nm to 10µM. Following a 90 minute incubation at 22°C, the suspension was filtered and the bound radioactivity was determined by liquid scintillation counting. […] A lower IC50 indicates higher affinity for the steroid site on the GABAA receptor-chloride channel complex. Table 1 gives the IC50 values of representative steroids used in the present invention.
One may read the IC50 as the concentration needed to halve the response being measured. In the case of “3α-Hydroxy-3β-trifluoromethyl-5β-19-nor-pregn-17(20)-ene”, the IC50 amounted to 482 nM.

In turn, “20,20-ethylenedioxy-3α-hydroxy-5α-pregnan-20-one” had an IC50 of 176 nM.

For the compound `CC(=O)[C@H]1CC[C@H]2[C@@H]3CC[C@@H]4C[C@@](O)(C#CCC(C)OC(=O)CCC(=O)O)CC[C@]4(C)[C@H]3CC[C@]12C` (mixture of isomers) [3α-Hydroxy-3β-[4'(R/S)-hydroxypentynyl]-5β-pregnan-20-one 4'(R/S)-hemisuccinate sodium salt], the IC50 stood at 153 nM.

For the compound `CC(C)(O)[C@H]1CC[C@H]2[C@@H]3CC[C@H]4C[C@H](O)CC[C@]4(C)[C@H]3CC[C@]12C` [3α,20-dihydroxy-20-methyl-5α-pregnane], the 50% inhibitory concentration (IC50) is 151 nM.

The compound `CCC[C@H](O)[C@H]1CC[C@H]2[C@@H]3CC[C@H]4C[C@H](O)CC[C@]4(C)[C@H]3CC[C@]12C` [3α,20a-Dihydroxy-21-ethyl-5α-pregnane] had an IC50 of 27 nM.

As to `CC[C@H](O)[C@H]1CC[C@H]2[C@@H]3CC[C@H]4C[C@H](O)CC[C@]4(C)[C@H]3CC[C@]12C` [3α,20a-Dihydroxy-21-methyl-5α-pregnane], the IC50 came out at 35 nM.

In turn, `C[C@H](O)[C@H]1CC[C@H]2[C@@H]3CC[C@H]4C[C@](C)(O)CC[C@]4(C)[C@H]3CC[C@]12C` [3α,20a-dihydroxy-30-methyl-5α-pregnane] registered an IC50 of 166 nM.

`C[C@@H](O)[C@H]1CC[C@H]2[C@@H]3CC[C@@H]4C[C@H](O)CC[C@]4(C)[C@H]3CC[C@]12C` [3α,20b-dihydroxy-5β-pregnane] registered an IC50 of 206 nM.

`C#C[C@@]1(O)CC[C@@]2(C)[C@@H](CC[C@@H]3[C@@H]2CC[C@]2(C)[C@@H](C(=O)CO)CC[C@@H]32)C1` [3α,21-Dihydroxy-3β-ethynyl-5α-pregnan-20-one] came in with an IC50 of 216 nM.

Turning to `CC(=O)OCC(=O)[C@H]1CC[C@H]2[C@@H]3CC[C@@H]4C[C@@](O)(C(F)(F)F)CC[C@]4(C)[C@H]3CC[C@]12C` [3α,21-Dihydroxy-3β-trifluoromethyl-5β-pregnan-20-one, 21-acetate], the IC50 worked out at 370 nM.

As to `C[C@@]1(O)CC[C@@]2(C)[C@@H](CC[C@@H]3[C@@H]2CC[C@]2(C)[C@@H](C(=O)COC(=O)CCC(=O)O)CC[C@@H]32)C1` [3α,21-dihydroxy-3β-methyl-5α-pregnan-20-one 21-Hemisuccinate], the IC50 was determined as 241 nM.

With `CC(=O)OCC(=O)[C@H]1CC[C@H]2[C@@H]3CC[C@H]4C[C@H](O)CC[C@]4(C)[C@H]3CC[C@]12C` [3α,21-dihydroxy-5α-pregnan-20-one 21-acetate], the half-inhibitory concentration (IC50) was 75 nM and 119 nM.

As to `C[C@]12CC[C@@H](O)C[C@@H]1CC[C@@H]1[C@@H]2CC[C@]2(C)[C@@H](C(=O)COC(=O)CCC(=O)O)CC[C@@H]12` [3α,21-dihydroxy-5α-pregnan-20-one 21-hemisuccinate], the IC50 stood at 117 nM.

On to `C[C@]12CC[C@@H](O)C[C@H]1CC[C@@H]1[C@@H]2CC[C@]2(C)[C@@H](C(=O)COC(=O)CCC(=O)O)CC[C@@H]12` [3α,21-dihydroxy-5β-pregnan-20-one 21-hemisuccinate], for which the IC50 came out at 224 nM.

`C[C@]12CC[C@@H](O)C[C@H]1CC[C@@H]1[C@@H]2CC[C@]2(C)[C@@H](C(=O)CO)CC[C@@H]12` [3α,21-dihydroxy-50-pregnan-20-one] gave an IC50 of 180 nM.

For `CC(C)(O)[C@H]1CC[C@H]2[C@@H]3CC[C@H]4C[C@](C)(O)CC[C@]4(C)[C@H]3CC[C@]12C` [3α, 20-dihydroxy-3β, 20-dimethyl-5α-pregnane], the 50% inhibitory concentration (IC50) was found to be 264 nM.

Still in this test, the particulars now being: inhibition of [35S]TBPS (2 nM) binding, rat cerebral cortex P2 membranes, 5 µM GABA, 90 minute incubation at 22°C; sodium salt.
`C[C@@]1(O)CC[C@@]2(C)[C@@H](CC[C@@H]3[C@@H]2CC[C@]2(C)[C@@H](C(=O)COC(=O)CCC(=O)O)CC[C@@H]32)C1` [3α,21-dihydroxy-3β-methyl-5α-pregnan-20-one 21-Hemisuccinate, sodium salt]: the 50% inhibitory concentration (IC50) is 211 nM.

As to `C[C@]12CC[C@@H](O)C[C@@H]1CC[C@@H]1[C@@H]2CC[C@]2(C)[C@@H](C(=O)COC(=O)CCC(=O)O)CC[C@@H]12` [3α,21-dihydroxy-5α-pregnan-20-one 21-hemisuccinate, sodium salt], the half-maximal inhibitory concentration (IC50) was determined as 251 nM.
